Assays:
[1] = system: Ctenocephalides felis; assay: In vitro contact test with fleas; details: read-out: insecticidal activity; for pest or weed control at 0.2 µg/cm2, 0.2 µg/cm2: dose 0.2 μg/cm^2, dead or moribund fleas after 48 h; for pest or weed control at 1 µg/cm2, 1 µg/cm2: dose 1 μg/cm^2, dead or moribund fleas after 48 h; for pest or weed control at 0.04 µg/cm2, 0.04 µg/cm2: dose 0.04 μg/cm^2, dead or moribund fleas after 48 h
Procedure: In Vitro Contact Tests with Fleas
In vitro contact tests with fleas were conducted with adult male and female cat fleas (Ctenocephalides felis).
(§1) To coat the test tubes, the test substance was dissolved and diluted in acetone p.a. to the desired concentration. The solution was then homogeneously applied to the inner wall and base of a glass tube by turning and rocking on an orbital shaker until complete evaporation of the solvent. For example, with a 900 ppm solution of test substance, an area-based dose of 5 μg/cm^2 was achieved.
Upon complete evaporation of the solvent, 5-10 adult cat fleas (Ctenocephalides felis) were added to each coated tube, which was then sealed with a perforated plastic lid and incubated in a horizontal position at room temperature and ambient humidity. After 48 h, insecticidal activity against fleas was determined. For this, fleas were collected to the base of the tube by knocking the tube, and the tube was allowed to stand upright. Fleas which remained motionless at the base or moved in an uncoordinated manner were considered dead or moribund, respectively.
A substance was judged to have good insecticidal activity against Ctenocephalides felis when at least 80% of the fleas were found dead or moribund at a dose of the substance of μg/cm^2. 100% insecticidal activity means that all the fleas were found dead or moribund. 0% insecticidal activity means that no fleas were found dead or moribund.

[2] = system: Ixodes ricinus; assay: In vitro contact test with adult hard ticks (Ixodes ricinus); details: read-out: acaricidal activity; for pest or weed control at 1 µg/cm2, 1 µg/cm2: dose 1 μg/cm^2, 48 h; for pest or weed control at 5 µg/cm2, 5 µg/cm2: dose 5 μg/cm^2, 48 h; for pest or weed control at 0.2 µg/cm2, 0.2 µg/cm2: dose 0.2 μg/cm^2, 48 h
Procedure: (§2) In Vitro Contact Tests with Adult Hard Ticks
(§3) In vitro contact tests with ticks were conducted with adult males and females of Rhipicephalus sanguineus, Ixodes ricinus, or Dermacentor variabilis, or nymphs of Amblyomma americanum.
as §1, with “For the coating of” for “To coat”, “vials,” for “tubes,”, “vial” for “tube”
(§4) After the solvent was completely evaporated, 5-10 adult ticks were put in each coated test vial, which was then sealed with a perforated plastic lid and incubated in a horizontal position in the dark at room temperature and ambient humidity (Rhipicephalus sanguineus) or in a climate-controlled cabinet (Ixodes ricinus, Dermacentor variabilis, Amblyomma americanum [21° C., 85% rel. hum.]). Acaricidal activity against the respective tick species was determined after 48 h. For this, ticks were collected to the base of the test vial by gentle knocking, and test vials were then incubated on a hotplate at 45-50° C. for no longer than 5 min. Ticks which remained motionless on the base of the test vial or moved uncoordinated without deliberately climbing up to avoid the heat were considered dead or moribund, respectively.
(§5) A substance was judged to have good acaricidal activity against the respective tick species when at least 80% of ticks were found dead or moribund at a dose of the substance of g/cm^2. An acaricidal activity of 100% means all ticks were dead or moribund. An acaricidal activity of 0% means none of the ticks was found dead or moribund.

[3] = system: Rhipicephalus sanguineus; assay: In vitro contact test with adult hard ticks (Rhipicephalus sanguineus); details: read-out: acaricidal activity; for pest or weed control at 0.2 µg/cm2, 0.2 µg/cm2: dose 0.2 μg/cm^2, 48 h; for pest or weed control at 1 µg/cm2, 1 µg/cm2: dose 1 μg/cm^2, 48 h; for pest or weed control at 0.04 µg/cm2, 0.04 µg/cm2: dose 0.04 μg/cm^2, 48 h
Procedure: as §2, §3
as §1, with “For the coating of” for “To coat”, “vials,” for “tubes,”, “vial” for “tube”
as §4, §5

[4] = system: Dermacentor variabilis; assay: In vitro contact test with adult hard ticks (Dermacentor variabilis); details: read-out: acaricidal activity; for pest or weed control at 0.2 µg/cm2, 0.2 µg/cm2: dose 0.2 μg/cm^2, 48 h; for pest or weed control at 1 µg/cm2, 1 µg/cm2: dose 1 μg/cm^2, 48 h
Procedure: as §2, §3
as §1, with “For the coating of” for “To coat”, “vials,” for “tubes,”, “vial” for “tube”
as §4, §5

[5] = system: Rhipicephalus (Boophilus) microplus; assay: In vitro injection test with Rhipicephalus (Boophilus) microplus (BOOPMI Inj); details: 168 h, laid fertile eggs after 7 days, read-out: acaricidal activity; for pest or weed control at 6.4 ng: dose 0.0064 μg/animal injected; for pest or weed control at 32 ng: dose 0.032 μg/animal injected; for pest or weed control at 0.00016 mg: dose 0.16 μg/animal injected; for pest or weed control at 0.0008 mg: dose 0.8 μg/animal injected
Procedure: In Vitro Injection Test with Rhipicephalus (Boophilus) Microplus (BOOPMI Inj)
To produce an appropriate mixture for injection, the test substance was dissolved and diluted in dimethyl sulphoxide to the desired concentration. 1 μl of the test mixture was injected into the abdomen of each of 5 engorged adult female cattle ticks (Rhipicephalus (Boophilus) microplus). The ticks were transferred into petri dishes and maintained in a climate-controlled room [28° C., 85% rel. hum.].
Acaricidal activity against cattle ticks was assessed after 7 days by assessment of laid fertile eggs. […] An acaricidal activity of 100% means that none of the ticks laid eggs or laid eggs were infertile; 0% means that the ticks laid eggs, and all the eggs were fertile.

[6] = system: Ctenocephalides felis; assay: Ctenocephalides felis in-vitro feeding test with fleas (CTECFE oral); details: 48 hours, read-out: insecticidal feeding activity; for pest or weed control at 0.0064 ppm: dose 0.0064 ppm in citrated cattle blood; for pest or weed control at 0.032 ppm: dose 0.032 ppm in citrated cattle blood; for pest or weed control at 0.16 ppm: dose 0.16 ppm in citrated cattle blood; for pest or weed control at 0.8 ppm: dose 0.8 ppm in citrated cattle blood; for pest or weed control at 4 ppm: dose 4 ppm in citrated cattle blood
Procedure: Ctenocephalides felis In-Vitro Feeding Test with Fleas (CTECFE Oral)
To prepare a test blood mixture for feeding fleas, the test substance was dissolved in dimethyl sulphoxide and diluted with citrated cattle blood to the desired concentration.
To assemble the test set-up, about 20 unfed adult male and female cat fleas
(Ctenocephalides felis) were placed in a chamber which was closed at the top and bottom with gauze. A metal cylinder was sealed at one end with parafilm membrane, placed with the sealed base onto the chamber, and filled with the test blood mixture, which could be imbibed by the fleas through the parafilm membrane. The assembled test set-up was maintained at about 37° C. After 48 hours, the insecticidal feeding activity against fleas was determined. 100% means that all of the fleas were killed; 0% means that none of the fleas was killed.

[7] = system: Amblyomma americanum; assay: In vitro contact test with hard ticks (Amblyomma americanum nymphs); details: read-out: acaricidal activity; for pest or weed control at 0.2 µg/cm2, 0.2 µg/cm2: dose 0.2 μg/cm^2, 48 h; for pest or weed control at 1 µg/cm2, 1 µg/cm2: dose 1 μg/cm^2, 48 h
Procedure: as §2, §3
as §1, with “For the coating of” for “To coat”, “vials,” for “tubes,”, “vial” for “tube”
as §4, §5

| Compound | pest or weed control at 0.2 µg/cm2, 0.2 µg/cm2 [1] [%] | pest or weed control at 1 µg/cm2, 1 µg/cm2 [1] [%] | pest or weed control at 1 µg/cm2, 1 µg/cm2 [2] [%] | pest or weed control at 5 µg/cm2, 5 µg/cm2 [2] [%] | pest or weed control at 0.2 µg/cm2, 0.2 µg/cm2 [3] [%] | pest or weed control at 1 µg/cm2, 1 µg/cm2 [3] [%] | pest or weed control at 0.2 µg/cm2, 0.2 µg/cm2 [4] [%] | pest or weed control at 1 µg/cm2, 1 µg/cm2 [4] [%] | pest or weed control at 32 ng [5] [%] | pest or weed control at 0.00016 mg [5] [%] | pest or weed control at 0.0008 mg [5] [%] | pest or weed control at 0.0064 ppm [6] [%] | pest or weed control at 0.032 ppm [6] [%] | pest or weed control at 0.16 ppm [6] [%] | pest or weed control at 0.8 ppm [6] [%] | pest or weed control at 4 ppm [6] [%] | pest or weed control at 0.2 µg/cm2, 0.2 µg/cm2 [7] [%] | pest or weed control at 1 µg/cm2, 1 µg/cm2 [7] [%] | pest or weed control at 0.04 µg/cm2, 0.04 µg/cm2 [1] [%] | pest or weed control at 0.2 µg/cm2, 0.2 µg/cm2 [2] [%] | other results |
| --- | --- | --- | --- | --- | --- | --- | --- | --- | --- | --- | --- | --- | --- | --- | --- | --- | --- | --- | --- | --- | --- |
| N#Cc1ccc(C(=O)Nc2cccc(C(=O)Nc3c(I)cc(C(F)(C(F)(F)F)C(F)(F)C(F)(F)F)cc3C(F)(F)F)c2F)cc1 (stereo not shown) [Compound 34] | 95 | 95 | 90 | 90 | 90 | 90 | 90 | 90 | 100 | 100 | 100 | 95 | 95 | 95 | 95 | 95 | 90 | 90 | – | – | pest or weed control at 0.04 µg/cm2, 0.04 µg/cm2 ([4]; dose 0.04 μg/cm^2, 48 h): 90%; pest or weed control at 6.4 ng [5]: 100% |
| O=C(Nc1cccc(C(=O)Nc2c(Br)cc(C(F)(C(F)(F)F)C(F)(F)C(F)(F)F)cc2C(F)(F)F)c1F)c1ccc(F)cc1 (stereo not shown) [Compound 36] | 95 | 95 | 90 | 90 | 90 | 90 | 90 | 90 | 100 | 100 | 100 | 95 | – | 95 | 95 | 95 | 90 | 90 | 95 | 90 | pest or weed control at 0.04 µg/cm2, 0.04 µg/cm2 [3]: 90% |
| O=C(Nc1cccc(C(=O)Nc2c(I)cc(C(F)(C(F)(F)F)C(F)(F)C(F)(F)F)cc2C(F)(F)F)c1F)c1ccc(F)cc1 (stereo not shown) [Compound 35] | 95 | 95 | 90 | 90 | 90 | 90 | 90 | 90 | 100 | 100 | 100 | – | 95 | 95 | 95 | 95 | 90 | 90 | – | 90 | pest or weed control at 0.04 µg/cm2, 0.04 µg/cm2 [3]: 90%; pest or weed control at 6.4 ng [5]: 100%; pest or weed control at 0.04 µg/cm2, 0.04 µg/cm2 ([7]; dose 0.04 μg/cm^2, 48 h): 90% |
| N#Cc1ccc(C(=O)Nc2cccc(C(=O)Nc3c(Br)cc(C(F)(C(F)(F)F)C(F)(F)F)cc3OC(F)(F)F)c2)cc1 [Compound 9] | 95 | 95 | 90 | 90 | 90 | – | 90 | 90 | – | 100 | 100 | – | – | – | 95 | 95 | – | 90 | – | 90 | – |
| CN(C(=O)c1ccc(F)cc1)c1cccc(C(=O)Nc2c(Br)cc(C(F)(C(F)(F)F)C(F)(F)F)cc2C(F)(F)F)c1F [Compound 26] | 95 | 95 | 90 | 90 | – | 90 | 90 | 90 | 100 | 100 | 100 | – | – | – | 95 | 95 | 90 | 90 | 95 | – | – |
| N#Cc1ccc(C(=O)Nc2cccc(C(=O)Nc3c(Br)cc(C(F)(C(F)(F)F)C(F)(F)F)cc3C(F)(F)F)c2F)cc1 [Compound 16] | 95 | 95 | 90 | 90 | 90 | 90 | 90 | 90 | – | 100 | 100 | 95 | 95 | 95 | 95 | 95 | 90 | 90 | 95 | 90 | pest or weed control at 0.04 µg/cm2, 0.04 µg/cm2 [3]: 90% |
